From patent US20260232847A1, “Nanoparticles For Imaging And Treatment Of Arthritis And Inflammatory Joint Diseases” (Cornell University, priority 2023, published 2026)

What was measured:
[1] = in vitro; cited from earlier work
[2] = in vivo; cited from earlier work
[3] = In vivo joint clearance pharmacokinetics after intraarticular injection, longitudinal IVIS fluorescence imaging; parameters: species or system rat
Protocol: Animals. All procedures were performed according to protocols approved by the Institutional Animal Care and Use Committee (IACUC) or Cornell University. Sprague Dawley male rats ([…], 300-325 g; Charles River Laboratories, Wilmington, MA) were housed in pairs under a standard 12 h light/dark cycle starting at 6:00 a.m. The animals were allowed to move freely in their cages, fed a low-fluorescence commercial diet (Teklad 2914) and were allowed access to tap water.
Animal Study Design. Rats were randomly assigned to (1) unoperated controls (naïve) and (2) those receiving ipsilateral anterior cruciate ligament transection (ACLT) and contralateral sham to model arthritic pathological joint changes (FIGS. 9A and B). Naïve rats were further split into pilot studies for intraarticular bilateral injection of Cy5 free fluorophore (n=2), unilateral C′ Dot injection with contralateral saline (n=4), and bilateral C′ Dot injection (n=4). Animals that received bilateral surgery were further split into groups where one group received no intraarticular injections (n=4) and one group received bilateral intraarticular injection of C′ Dots one week post-operatively (n=6). Selected animals underwent ACLT surgery on a randomly assigned knee via an open surgical approach under 2.5% isoflurane anesthesia at 1 L/min O2, as previously described. Complete transection of the ACL was confirmed by a cranial drawer test. A single dose of Ethiqa XR (slow release buprenorphine) was administered subcutaneously at 0.65 mg/kg just prior to ACLT surgery. The animals could ambulate, eat, and drink ad libitum after surgery.
Intraarticular injection. Under 3% isoflurane anesthesia, the lower abdominal region (distal to sternum) including the front and back of both stifles was clipped to remove fur and sterilized with three alternating wipes of iodine and ethanol. […]
In vivo longitudinal fluorescence imaging. Longitudinal fluorescence images of rats receiving Cy5 or C′ Dot intraarticular injections were recorded using the In Vivo Imaging System (IVIS) Kinetic (Perkin Elmer; Waltham, MA) over one week for Cy5 injection at the following timepoints: 0, 1, 2, 4, 8, 12, 24, 48, and 72 h, and at 7 d (FIG. 9S3). […] Each week, rat fur was clipped as described above and animal weights were recorded. […] Fluorescence was set at 640 nm/680 nm excitation/emission optimized for Cyanine-5 and C′ Dots.
IVIS image analysis. […] Total Radiant Efficiency (TRE) (area sum of ((p/sec/cm^2/sr)/(ρW/cm^2))) was recorded for each stifle at each time point for the duration of imaging. Average TRE from saline-injected stifles (n=4) was subtracted from all stifle TRE measurements as tissue fluorescence background. […]

| Compound | duration of anti-inflammatory effects [1] | half-life in the knee / joint half-life [2] | time constant τ, single exponential decay ([3]; naïve knees, Eq 2) | time after which fluorescence was undetectable ([3]; naïve rat knees) | time of signal peak ([3]; naïve rat knees, Cy5 dye injection) | half-life t1/2,1 ([3]; t1/2=ln(2)*τ) |
| --- | --- | --- | --- | --- | --- | --- |
| anakinra: established DMARD, anakinra (Kineret) | 2 days | 24 h | – | – | – | – |
| CN1C(=CC=CC=CC2=[N+](CCCCCC(=O)O)c3ccc(S(=O)(=O)O)cc3C2(C)C)C(C)(C)c2cc(S(=O)(=O)[O-])ccc21 [Cy5, Sulfo-Cyanine-5-carboxylic acid] | – | – | 0.6 h | 3 days | 0 h | 0.4 h |
